From patent publication US4450269A, “Mono-5-substituted-3-chloro-4H-1,2,6-thiadiazin-4-one antifungal agents” (FMC Corporation, priority 1980, dated 1984)
Read-outs that look alike come from different tables or passages of the source.

Assays:
Phytophthora infestans = test: whole plant or invertebrate; format: in vivo; settings: for Percent Disease Control, foliar, tomato late blight: 150 ppm, protective; for pest or weed control at 150 ppm: Phytophthora infestans, in Solanum lycopersicum, foliar, read-out: Percent Disease Control, foliar, tomato late blight, 150 ppm, protective
Pyricularia oryzae = format: cell-based; settings: PO, 48 hours
Alternaria solani = test: Mycelial growth test; format: cell-based; settings: AS; for Percent Fungus Growth Inhibition: 72 hours; for inhibition at 5 ppm / inhibition at 10 ppm / inhibition at 20 ppm / inhibition at 40 ppm: Alternaria solani, 72 h, read-out: Percent Fungus Growth Inhibition

| Molecule | Percent Disease Control, foliar, tomato late blight (Phytophthora infestans) [%] | Spore Germination Rating (Pyricularia oryzae; 1.0 ppm) | Spore Germination Rating (Pyricularia oryzae; 2.5 ppm) | Spore Germination Rating (Pyricularia oryzae; 10 ppm) | Spore Germination Rating (Pyricularia oryzae; 40 ppm) | Percent Fungus Growth Inhibition (Alternaria solani; 5 ppm) [%] | Percent Fungus Growth Inhibition (Alternaria solani; 10 ppm) [%] | Percent Fungus Growth Inhibition (Alternaria solani; 20 ppm) [%] | Percent Fungus Growth Inhibition (Alternaria solani; 40 ppm) [%] | pest or weed control at 150 ppm (Phytophthora infestans) [%] | inhibition at 5 ppm (Alternaria solani; 5 ppm) [%] | inhibition at 10 ppm (Alternaria solani; 10 ppm) [%] | inhibition at 20 ppm (Alternaria solani; 20 ppm) [%] | inhibition at 40 ppm (Alternaria solani; 40 ppm) [%] |
| --- | --- | --- | --- | --- | --- | --- | --- | --- | --- | --- | --- | --- | --- | --- |
| 3-chloro-5-(bromophenoxy)-4H-1,2,6-thiadiazin-4-one [Compound 33] | 0 | 2 (40-60) | 0 (0-10) | 0 (0-10) | 0 (0-10) | 100 | 100 | 100 | 100 | – | – | – | – | – |
| 3-chloro-5-[methylaminocarbonyloxy)phenoxyl]-4H-1,2,6-thiadiazin-4-one [Compound 36] | 90 | 4 (80-100) | 2 (40-60) | 0 (0-10) | 0 (0-10) | 71 | 90 | 100 | 100 | – | – | – | – | – |
| O=c1c(Cl)nsnc1Oc1ccccc1 [Compound 2, 3-chloro-5-phenoxy-4H--1,2,6-thiadiazin-4-one] | – | 3 (60-80) | 1 (10-40) | 0 (0-10) | 0 (0-10) | – | – | – | – | 0 | 75 | 100 | 100 | 100 |
| Cc1ccc(Oc2nsnc(Cl)c2=O)cc1 [Compound 3, 3-chloro-5-(4-methylphenoxy)-4H--1,2,6-thiadiazin-4-one] | – | 0 (0-10) | 4 (80-100) | 0 (0-10) | 0 (0-10) | – | – | – | – | 50 | 19 | 63 | 100 | 100 |
| CC(C)(C)c1ccc(Oc2nsnc(Cl)c2=O)cc1 [Compound 4, 3-chloro-5-(4-tert-butylphnoxy)-4H--1,2,6-thiadiazin-4-one] | – | 4 (80-100) | 4 (80-100) | 0 (0-10) | 0 (0-10) | – | – | – | – | 0 | 13 | 13 | 0 | 17 |
| COc1ccc(Oc2nsnc(Cl)c2=O)cc1 [Compound 5, 3-chloro-5-(4-methoxyphenoxy)4H--1,2,6-thiadiazin-4-one] | – | 4 (80-100) | 1 (10-40) | 0 (0-10) | 0 (0-10) | – | – | – | – | 0 | 100 | 100 | 100 | 100 |
| CCCCOc1ccc(Oc2nsnc(Cl)c2=O)cc1 [Compound 6, 3-chloro-5-(4-n-butoxyphenoxy)-4H--1,2,6-thiadiazin-4-one] | – | 2 (40-60) | 1 (10-40) | 2 (40-60) | 0 (0-10) | – | – | – | – | 0 | 8 | 0 | 13 | 21 |
| CCOC(=O)c1ccc(Oc2nsnc(Cl)c2=O)cc1 [Compound 7, 3-chloro-5-(4-ethoxycarbonylphenoxy)-4H--1,2,6-thiadiazin-4-one] | – | 1 (10-40) | 1 (10-40) | 1 (10-40) | 1 (10-40) | – | – | – | – | 100 | 54 | 75 | 75 | 92 |
| CC(=O)Nc1ccc(Oc2nsnc(Cl)c2=O)cc1 [Compound 8, 5-(4-acetylaminophenoxy)-3-chloro-4H--1,2,6-thiadiazin-4-one] | – | 4 (80-100) | 3 (60-80) | 0 (0-10) | 0 (0-10) | – | – | – | – | 90 | 38 | 41 | 69 | 86 |
| O=c1c(Cl)nsnc1Oc1ccc([N+](=O)[O-])cc1 [Compound 9, 3-chloro-5-(4-nitrophenoxy)-4H--1,2,6-thiadiazin-4-one] | – | 0 (0-10) | 0 (0-10) | 0 (0-10) | 0 (0-10) | – | – | – | – | 90 | 31 | 63 | 100 | 100 |
| N#Cc1ccc(Oc2nsnc(Cl)c2=O)cc1 [Compound 10, 3-chloro-5-(4-cyanophenoxy)-4H--1,2,6-thiadiazin-4-one] | – | 0 (0-10) | 0 (0-10) | 0 (0-10) | 0 (0-10) | – | – | – | – | 100 | 54 | 79 | 92 | 92 |
| O=c1c(Cl)nsnc1Oc1ccc(F)cc1 [Compound 11, 3-chloro-5-(4-fluorophenoxy)-4H--1,2,6-thiadiazin-4-one] | – | 3 (60-80) | 0 (0-10) | 0 (0-10) | 0 (0-10) | – | – | – | – | 100 | 63 | 83 | 100 | 100 |
| O=c1c(Cl)nsnc1Oc1ccc(Cl)cc1 [Compound 12, 3-chloro-5-(4-chlorophenoxy)-4H--1,2,6-thiadiazin-4-one] | – | 0 (0-10) | 0 (0-10) | 0 (0-10) | 0 (0-10) | – | – | – | – | 100 | 31 | 31 | 63 | 100 |
| O=c1c(Cl)nsnc1Oc1cccc(Cl)c1 [Compound 13, 3-chloro-5-(3-chlorophenoxy)-4H--1,2,6-thiadiazin-4-one] | – | 3 (60-80) | 0 (0-10) | 0 (0-10) | 0 (0-10) | – | – | – | – | 98 | 45 | 59 | 86 | 100 |
| O=c1c(Cl)nsnc1Oc1ccccc1Cl [Compound 14, 3-chloro-5-(2-chlorophenoxy)-4H--1,2,6-thiadiazin-4-one] | – | 3 (60-80) | 0 (0-10) | 0 (0-10) | 0 (0-10) | – | – | – | – | 0 | 86 | 79 | 100 | 100 |
| O=c1c(Cl)nsnc1Oc1ccc(Br)cc1 [Compound 15, 3-chloro-5-(4-bromophenoxy)-4H--1,2,6-thiadiazin-4-one] | – | 0 (0-10) | 1 (10-40) | 0 (0-10) | 0 (0-10) | – | – | – | – | 100 | 54 | 66 | 66 | 75 |
| O=c1c(Cl)nsnc1Oc1ccc(Cl)c(Cl)c1 [Compound 16, 3-chloro-5-(3,4-dichlorophenoxy)-4H--1,2,6-thiadiazin-4-one] | – | 0 (0-10) | 0 (0-10) | 0 (0-10) | 0 (0-10) | – | – | – | – | 0 | 38 | 50 | 56 | 50 |
| O=c1c(Cl)nsnc1Oc1ccc(Cl)cc1Cl [Compound 17, 3-chloro-5-(2,4-dichlorophenoxy)-4H--1,2,6-thiadiazin-4-one] | – | 0 (0-10) | 0 (0-10) | 0 (0-10) | 0 (0-10) | – | – | – | – | 100 | 79 | 72 | 93 | 100 |
| O=c1c(Cl)nsnc1Oc1c(Cl)cccc1Cl [Compound 18, 3-chloro-5-(2,6-dichlorophenoxy)-4H--1,2,6-thiadiazin-4-one] | – | 4 (80-100) | 2 (40-60) | 0 (0-10) | 0 (0-10) | – | – | – | – | 50 | 69 | 90 | 90 | 84 |
| O=c1c(Cl)nsnc1Oc1cccc(Cl)c1Cl [Compound 19, 3-chloro-5-(2,3-dichlorophenoxy)-4H--1,2,6-thiadiazin-4-one] | – | 3 (60-80) | 0 (0-10) | 0 (0-10) | 0 (0-10) | – | – | – | – | 0 | 62 | 62 | 90 | 100 |
| O=c1c(Cl)nsnc1Oc1cc(Cl)cc(Cl)c1 [Compound 20, 3-chloro-5-(3,5-dichlorophenoxy)-4H--1,2,6-thiadiazin-4-one] | – | 1 (10-40) | 0 (0-10) | 0 (0-10) | 0 (0-10) | – | – | – | – | 0 | 59 | 59 | 59 | 83 |
| Cc1cccc(Oc2nsnc(Cl)c2=O)c1 [Compound 21, 3-chloro-5-(3-methylphenoxy)-4H--1,2,6-thiadiazin-4-one] | – | 4 (80-100) | 0 (0-10) | 0 (0-10) | 0 (0-10) | – | – | – | – | 50 | 75 | 63 | 75 | 100 |
| Cc1ccccc1Oc1nsnc(Cl)c1=O [Compound 22, 3-chloro-5-(2-methylphenoxy)-4H--1,2,6-thiadiazin-4-one] | – | 2 (40-60) | 0 (0-10) | 0 (0-10) | 0 (0-10) | – | – | – | – | 0 | 63 | 88 | 100 | 100 |
| Cc1ccc(Oc2nsnc(Cl)c2=O)c(C)c1 [Compound 23, 3-chloro-5-(2,4-dimethylphenoxy)-4H--1,2,6-thiadiazin-4-one] | – | 4 (80-100) | 0 (0-10) | 0 (0-10) | 0 (0-10) | – | – | – | – | 0 | 63 | 81 | 100 | 100 |
